PubChem BioAssay AID651781 (The Scripps Research Institute Molecular Screening Center, 2012)
The source made the active and inactive calls.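 How the source made its calls: active means IC50 at or below 10 µM; inactive means IC50 above 10 µM.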

Molecular target: GAL4 DBD-VP16 fusion transactivation (Human herpesvirus 1 VP16)
Assay: GAL4-VP16 transactivation reporter inhibitors, late-stage follow-up, counter-screen for SRC3 inhibitor project, cell-based, luminescence, dose response, powder samples (AID 651781)
Conditions: HEK293 GAL4-VP16 UAS luciferase reporter

**Q.** How did the IC50 turn out when `CN1C(=O)C2(C(C#N)=C(N)N(c3cc(Cl)cc(Cl)c3)C3=C2C(=O)CCC3)c2ccccc21` (stereo not drawn) was run?
**A.** Its IC50 is “inactive”.

**Q.** For `Cc1ccc(OCC(=O)c2cc(C)n(-c3ccccc3)c2C)c([N+](=O)[O-])n1`, which IC50 is on record?
**A.** Its IC50 is “inactive”.

**Q.** Which IC50 does the source give for `O=C(Nc1ccccc1Oc1ccccc1)c1cc([N+](=O)[O-])ccc1Cl` here?
**A.** The IC50 was “inactive”.

**Q.** `O=C(COC(=O)c1ccc[nH]c1=O)Nc1ccc(N2CCCCC2)cc1` was tested. Which IC50 did it give?
**A.** Its IC50 is > 35.9 µM (inactive).

**Q.** With `OCCN1CCN(C(=S)c2ccc(-c3ccccc3)cc2)CC1` as the compound, how does the IC50 read?
**A.** Its IC50 is “inactive”.

**Q.** How did the IC50 turn out when `CCCNC(=O)c1nnsc1S(=O)(=O)c1ccc(Cl)cc1` was run?
**A.** Its IC50 is 6.04 µM.

**Q.** For `CC(C)(C)c1ccc(-c2noc(CCC(=O)Nc3cccnc3)n2)cc1`, which IC50 is on record?
**A.** Its IC50 is 9.65 µM.

**Q.** `CN1C(=O)C2(C(C#N)=C(N)N(c3cc(Cl)cc(Cl)c3)C3=C2C(=O)CC(C)(C)C3)c2ccccc21` (stereo not drawn) was tested. Which IC50 did it give?
**A.** Its IC50 is “inactive”.
